Reference: patent publication US9340590B2 (priority 2011, dated 2016)
Positions of bridges follow the written chain, without caps; N, C: chain ends. Non-standard residues stand in square brackets, D forms with d. Residues, ends and D or L forms follow the SMILES beside them. 1Nal = N[C@@H](Cc1cccc2ccccc12)C(=O)O

How the values were obtained:
Assay in all cases: cell-based
[1] = molecular target: hNav1.5 (Homo sapiens, UniProt Q14524)
[2] = molecular target: hNav1.3 (Homo sapiens, UniProt Q9NY46); type: cell-based; conditions: Nav1.3 Use IC50
[3] = molecular target: hNav1.7 (Homo sapiens, UniProt Q15858); conditions: Nav1.7 Use IC50

Sequence of hNav1.3 (Q9NY46 whole entry, looked up): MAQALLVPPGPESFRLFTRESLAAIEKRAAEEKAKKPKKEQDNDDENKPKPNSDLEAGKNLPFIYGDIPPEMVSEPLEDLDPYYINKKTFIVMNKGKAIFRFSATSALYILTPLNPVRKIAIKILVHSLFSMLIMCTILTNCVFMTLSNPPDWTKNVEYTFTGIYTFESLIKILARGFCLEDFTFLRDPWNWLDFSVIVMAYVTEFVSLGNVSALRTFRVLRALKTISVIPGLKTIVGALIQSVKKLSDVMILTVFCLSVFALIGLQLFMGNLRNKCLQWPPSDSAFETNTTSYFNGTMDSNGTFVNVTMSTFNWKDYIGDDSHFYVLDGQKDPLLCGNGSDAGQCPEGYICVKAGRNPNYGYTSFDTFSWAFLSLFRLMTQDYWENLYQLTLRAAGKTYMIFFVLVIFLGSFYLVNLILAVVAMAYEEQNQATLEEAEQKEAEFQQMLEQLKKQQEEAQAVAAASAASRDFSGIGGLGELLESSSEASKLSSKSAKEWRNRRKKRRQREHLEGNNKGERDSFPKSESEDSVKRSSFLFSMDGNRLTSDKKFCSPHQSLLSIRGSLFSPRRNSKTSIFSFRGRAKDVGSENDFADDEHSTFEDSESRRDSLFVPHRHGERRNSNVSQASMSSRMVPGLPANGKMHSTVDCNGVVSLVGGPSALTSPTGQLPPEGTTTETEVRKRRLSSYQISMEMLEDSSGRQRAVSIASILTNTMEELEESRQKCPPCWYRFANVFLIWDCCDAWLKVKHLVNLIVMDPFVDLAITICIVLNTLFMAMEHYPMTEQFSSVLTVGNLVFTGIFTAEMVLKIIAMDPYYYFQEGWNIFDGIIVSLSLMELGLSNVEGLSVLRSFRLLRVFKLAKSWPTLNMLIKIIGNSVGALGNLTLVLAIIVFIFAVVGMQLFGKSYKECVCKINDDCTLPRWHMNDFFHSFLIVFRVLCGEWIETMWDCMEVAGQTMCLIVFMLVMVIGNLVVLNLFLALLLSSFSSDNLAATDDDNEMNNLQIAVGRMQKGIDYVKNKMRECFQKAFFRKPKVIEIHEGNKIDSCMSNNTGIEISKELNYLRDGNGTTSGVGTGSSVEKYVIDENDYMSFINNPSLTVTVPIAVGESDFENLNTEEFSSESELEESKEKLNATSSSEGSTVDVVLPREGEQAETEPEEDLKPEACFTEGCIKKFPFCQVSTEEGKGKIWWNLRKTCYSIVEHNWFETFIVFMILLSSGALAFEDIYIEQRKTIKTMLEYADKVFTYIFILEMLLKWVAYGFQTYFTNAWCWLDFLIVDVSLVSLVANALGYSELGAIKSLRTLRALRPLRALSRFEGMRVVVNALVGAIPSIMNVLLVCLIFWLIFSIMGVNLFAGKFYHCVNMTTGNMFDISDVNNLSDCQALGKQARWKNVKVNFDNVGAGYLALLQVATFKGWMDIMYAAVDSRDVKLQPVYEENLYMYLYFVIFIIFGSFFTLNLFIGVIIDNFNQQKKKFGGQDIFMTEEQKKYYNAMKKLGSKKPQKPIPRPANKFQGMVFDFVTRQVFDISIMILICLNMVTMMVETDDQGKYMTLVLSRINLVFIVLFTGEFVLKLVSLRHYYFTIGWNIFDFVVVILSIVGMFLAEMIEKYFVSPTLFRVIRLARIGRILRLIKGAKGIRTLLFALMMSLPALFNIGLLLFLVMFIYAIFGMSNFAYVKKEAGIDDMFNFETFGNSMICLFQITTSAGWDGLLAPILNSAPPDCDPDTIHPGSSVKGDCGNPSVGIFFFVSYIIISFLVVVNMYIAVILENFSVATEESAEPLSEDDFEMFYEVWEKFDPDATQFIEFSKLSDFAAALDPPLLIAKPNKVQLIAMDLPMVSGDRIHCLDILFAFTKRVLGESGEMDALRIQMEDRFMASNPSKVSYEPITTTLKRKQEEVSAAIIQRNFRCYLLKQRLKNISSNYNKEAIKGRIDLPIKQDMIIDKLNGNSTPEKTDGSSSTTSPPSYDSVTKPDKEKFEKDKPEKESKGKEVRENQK
Sequence of hNav1.5 (Q14524 whole entry, looked up): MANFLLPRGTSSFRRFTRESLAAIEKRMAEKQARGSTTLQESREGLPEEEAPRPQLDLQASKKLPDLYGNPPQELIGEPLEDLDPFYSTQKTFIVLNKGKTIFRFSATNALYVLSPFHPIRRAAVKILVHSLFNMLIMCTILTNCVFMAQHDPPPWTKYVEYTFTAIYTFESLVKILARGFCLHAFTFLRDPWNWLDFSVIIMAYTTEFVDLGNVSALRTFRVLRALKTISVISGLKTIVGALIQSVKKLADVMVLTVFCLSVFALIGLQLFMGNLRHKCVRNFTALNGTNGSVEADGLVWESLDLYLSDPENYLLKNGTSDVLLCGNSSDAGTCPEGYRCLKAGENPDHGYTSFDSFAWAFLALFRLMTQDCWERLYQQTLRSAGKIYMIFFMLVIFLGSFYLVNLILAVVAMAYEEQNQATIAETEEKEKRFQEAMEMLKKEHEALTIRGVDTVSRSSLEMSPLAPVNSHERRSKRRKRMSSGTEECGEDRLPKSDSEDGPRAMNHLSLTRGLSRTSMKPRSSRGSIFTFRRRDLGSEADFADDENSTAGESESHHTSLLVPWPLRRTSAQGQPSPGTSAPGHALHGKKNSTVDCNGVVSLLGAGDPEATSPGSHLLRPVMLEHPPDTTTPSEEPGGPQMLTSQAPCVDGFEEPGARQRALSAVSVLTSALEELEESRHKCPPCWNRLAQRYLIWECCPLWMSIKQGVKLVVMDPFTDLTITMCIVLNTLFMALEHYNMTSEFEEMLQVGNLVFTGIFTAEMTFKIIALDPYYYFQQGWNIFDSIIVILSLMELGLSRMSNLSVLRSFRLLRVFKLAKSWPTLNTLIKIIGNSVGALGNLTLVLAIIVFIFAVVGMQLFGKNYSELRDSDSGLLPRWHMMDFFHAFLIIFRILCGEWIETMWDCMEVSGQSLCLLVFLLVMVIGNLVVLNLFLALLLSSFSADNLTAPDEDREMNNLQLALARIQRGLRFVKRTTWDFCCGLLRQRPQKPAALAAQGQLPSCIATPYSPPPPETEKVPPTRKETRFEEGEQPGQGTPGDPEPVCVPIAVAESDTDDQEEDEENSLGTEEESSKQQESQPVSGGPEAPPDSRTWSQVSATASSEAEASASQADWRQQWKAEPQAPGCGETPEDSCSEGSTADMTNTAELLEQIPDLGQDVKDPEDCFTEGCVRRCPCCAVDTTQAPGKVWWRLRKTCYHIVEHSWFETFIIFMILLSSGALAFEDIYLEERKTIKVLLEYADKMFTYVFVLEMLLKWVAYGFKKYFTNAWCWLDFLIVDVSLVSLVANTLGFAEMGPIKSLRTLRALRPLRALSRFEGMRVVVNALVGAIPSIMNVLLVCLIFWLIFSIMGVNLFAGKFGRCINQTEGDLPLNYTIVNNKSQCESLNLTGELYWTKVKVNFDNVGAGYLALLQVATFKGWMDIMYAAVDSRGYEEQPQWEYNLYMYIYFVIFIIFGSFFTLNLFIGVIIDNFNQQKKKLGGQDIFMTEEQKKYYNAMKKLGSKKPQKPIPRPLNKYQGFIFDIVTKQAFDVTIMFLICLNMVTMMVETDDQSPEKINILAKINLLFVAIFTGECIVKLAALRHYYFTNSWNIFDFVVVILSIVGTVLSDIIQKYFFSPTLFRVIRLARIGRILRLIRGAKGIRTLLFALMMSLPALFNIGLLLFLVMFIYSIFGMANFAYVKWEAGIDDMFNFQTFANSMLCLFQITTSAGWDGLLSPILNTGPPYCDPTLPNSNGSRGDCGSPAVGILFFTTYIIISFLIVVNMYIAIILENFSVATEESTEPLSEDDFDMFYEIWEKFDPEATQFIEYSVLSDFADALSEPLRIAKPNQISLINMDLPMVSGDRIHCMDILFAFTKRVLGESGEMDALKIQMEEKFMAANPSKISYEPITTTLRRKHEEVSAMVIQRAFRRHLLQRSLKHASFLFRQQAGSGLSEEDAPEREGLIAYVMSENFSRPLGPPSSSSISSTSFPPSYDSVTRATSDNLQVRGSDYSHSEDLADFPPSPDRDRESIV

Structure (SMILES) | IC50 [1] | IC50 [2] | IC50 [3]
CC[C@H](C)[C@@H]1NC(=O)[C@@H]2CSSC[C@@H]3NC(=O)[C@H](C(C)C)NC(=O)[C@H](CC(C)C)NC(=O)[C@H](CC(N)=O)NC(=O)[C@@H]4CCCN4C(=O)[C@H](CCCNC(=N)N)NC(=O)[C@H](CSSC[C@H](NC(=O)[C@@H](N)CC(=O)O)C(=O)N[C@@H](CC(C)C)C(=O)NCC(=O)N[C@@H](Cc4ccccc4)C(=O)N[C@@H](CCSC)C(=O)N[C@@H](CCCNC(=N)N)C(=O)N[C@@H](CCCCN)C(=O)N2)NC(=O)[C@H](CSSC[C@@H](C(=O)N[C@@H](CCCCN)C(=O)N[C@@H](Cc2ccc(O)cc2)C(=O)N[C@H](C(=O)N[C@@H](Cc2ccccc2)C(=O)N[C@@H](Cc2c[nH]c4ccccc24)C(N)=O)C(C)C)NC(=O)[C@H](Cc2c[nH]c4ccccc24)NC(=O)[C@H](CCCCN)NC(=O)[C@H](Cc2c[nH]cn2)NC(=O)[C@H]([C@@H](C)O)NC(=O)[C@H](CCCNC(=N)N)NC(=O)[C@H](CO)NC3=O)NC(=O)[C@H](CCCCN)NC(=O)[C@H](CC(=O)O)NC(=O)[C@H](CC(N)=O)NC(=O)[C@H](CC(=O)O)NC(=O)[C@@H]2CCCN2C1=O [GpTx-1(1-34)-Trp] | 2.66 µM | 0.015 µM | 0.009 µM
CC[C@H](C)[C@@H]1NC(=O)[C@@H]2CSSC[C@@H]3NC(=O)[C@H](C(C)C)NC(=O)[C@H](CC(C)C)NC(=O)[C@H](CC(N)=O)NC(=O)[C@@H]4CCCN4C(=O)[C@H](CCCNC(=N)N)NC(=O)[C@H](CSSC[C@H](NC(=O)[C@@H](N)CC(=O)O)C(=O)N[C@@H](CC(C)C)C(=O)NCC(=O)N[C@@H](Cc4ccccc4)C(=O)N[C@@H](CCSC)C(=O)N[C@@H](CCCNC(=N)N)C(=O)N[C@@H](CCCCN)C(=O)N2)NC(=O)[C@H](CSSC[C@@H](C(=O)N[C@@H](CCCCN)C(=O)N[C@@H](Cc2ccc(O)cc2)C(=O)N[C@H](C(=O)N[C@@H](Cc2cccc4ccccc24)C(N)=O)C(C)C)NC(=O)[C@H](Cc2c[nH]c4ccccc24)NC(=O)[C@H](CCCCN)NC(=O)[C@H](Cc2cnc[nH]2)NC(=O)[C@H]([C@@H](C)O)NC(=O)[C@H](CCCNC(=N)N)NC(=O)[C@H](CO)NC3=O)NC(=O)[C@H](CCCCN)NC(=O)[C@H](CC(=O)O)NC(=O)[C@H](CC(N)=O)NC(=O)[C@H](CC(=O)O)NC(=O)[C@@H]2CCCN2C1=O [[1-Nal34]GpTx-1(1-34)] (H-DCLGFMRKCIPDNDKCCRPNLVCSRTHKWCKYV[1Nal]-NH2; disulfide 2-17, 9-23, 16-30) | 1.86 µM | 0.007 µM | 0.004 µM
CC[C@H](C)[C@@H]1NC(=O)[C@@H]2CSSC[C@@H]3NC(=O)[C@H](C(C)C)NC(=O)[C@H](CC(C)C)NC(=O)[C@H](CC(N)=O)NC(=O)[C@@H]4CCCN4C(=O)[C@H](CCCNC(=N)N)NC(=O)[C@H](CSSC[C@H](NC(=O)[C@@H](N)CC(=O)O)C(=O)N[C@@H](CC(C)C)C(=O)NCC(=O)N[C@@H](Cc4ccccc4)C(=O)N[C@@H](CCSC)C(=O)N[C@@H](CCCNC(=N)N)C(=O)N[C@@H](CCCCN)C(=O)N2)NC(=O)[C@H](CSSC[C@@H](C(=O)N[C@@H](CCCCN)C(=O)N[C@@H](Cc2ccc(O)cc2)C(=O)N[C@H](C(=O)N[C@@H](Cc2ccccc2)C(N)=O)C(C)C)NC(=O)[C@H](Cc2c[nH]c4ccccc24)NC(=O)[C@H](CCCCN)NC(=O)[C@H](Cc2cnc[nH]2)NC(=O)[C@H](CCCNC(=N)N)NC(=O)[C@H](CCCNC(=N)N)NC(=O)[C@H](CO)NC3=O)NC(=O)[C@H](CCCCN)NC(=O)[C@H](CC(=O)O)NC(=O)[C@H](CC(N)=O)NC(=O)[C@H](CC(=O)O)NC(=O)[C@@H]2CCCN2C1=O [[Arg26]GpTx-1(1-34)] (H-DCLGFMRKCIPDNDKCCRPNLVCSRRHKWCKYVF-NH2; disulfide 2-17, 9-23, 16-30) | 0.573 µM | 0.01 µM | 
